In ChEMBL document CHEMBL5113530, “Butyrylation Meets Adipogenesis-Probed by a p300-Catalyzed Acylation-Specific Small Molecule Inhibitor: Implication in Anti-obesity Therapy” (J Med Chem, 2022):
Activity calls are given as the source filed them. The calls are words filed in the database; no cut-off is given here.

Key:
[1] = Toxicity in male Sprague-Dawley rat assessed as effect on body weight at 500 mg/kg, po administered as single dose measured on day 7 (reference value: 217.38 +/- 11.38 g); type: organism-based; settings: in vivo, 168 h, time 7 day
[2] = Toxicity in female Sprague-Dawley rat assessed as effect on body weight at 250 mg/kg, po administered as single dose measured on day 7 (Rvb =169.81 +/- 6.57 g); type: organism-based; settings: in vivo, 168 h, time 7 day
[3] = Toxicity in female Sprague-Dawley rat assessed as average water intake measured per day at 250 mg/kg, po administered as single dose measured on day 1 (Rvb =25 ml/day); type: organism-based; settings: in vivo, 24 h, time 1 day
[4] = Toxicity in male Sprague-Dawley rat assessed as average food intake at 1000 mg/kg, po administered as single dose measured on day 1 (Rvb =20.38 g/day); type: organism-based; settings: in vivo, 24 h, time 1 day
[5] = target: Histone acetyltransferase p300 (Homo sapiens) (UniProt Q09472); assay: Inhibition of recombinant full length His-tagged EP300 catalyzed butyrylation (unknown origin) expressed in baculovirus infected Sf21insect cells using Histone H3 as substrate at 25 uM preincubated with compound for 10 mins followed by butyryl-CoA addition and measured after 10 mins by Western blot analysis; settings: Sf21, time 20.0 min
Chain of Histone acetyltransferase p300 (Homo sapiens) (Q09472 whole entry): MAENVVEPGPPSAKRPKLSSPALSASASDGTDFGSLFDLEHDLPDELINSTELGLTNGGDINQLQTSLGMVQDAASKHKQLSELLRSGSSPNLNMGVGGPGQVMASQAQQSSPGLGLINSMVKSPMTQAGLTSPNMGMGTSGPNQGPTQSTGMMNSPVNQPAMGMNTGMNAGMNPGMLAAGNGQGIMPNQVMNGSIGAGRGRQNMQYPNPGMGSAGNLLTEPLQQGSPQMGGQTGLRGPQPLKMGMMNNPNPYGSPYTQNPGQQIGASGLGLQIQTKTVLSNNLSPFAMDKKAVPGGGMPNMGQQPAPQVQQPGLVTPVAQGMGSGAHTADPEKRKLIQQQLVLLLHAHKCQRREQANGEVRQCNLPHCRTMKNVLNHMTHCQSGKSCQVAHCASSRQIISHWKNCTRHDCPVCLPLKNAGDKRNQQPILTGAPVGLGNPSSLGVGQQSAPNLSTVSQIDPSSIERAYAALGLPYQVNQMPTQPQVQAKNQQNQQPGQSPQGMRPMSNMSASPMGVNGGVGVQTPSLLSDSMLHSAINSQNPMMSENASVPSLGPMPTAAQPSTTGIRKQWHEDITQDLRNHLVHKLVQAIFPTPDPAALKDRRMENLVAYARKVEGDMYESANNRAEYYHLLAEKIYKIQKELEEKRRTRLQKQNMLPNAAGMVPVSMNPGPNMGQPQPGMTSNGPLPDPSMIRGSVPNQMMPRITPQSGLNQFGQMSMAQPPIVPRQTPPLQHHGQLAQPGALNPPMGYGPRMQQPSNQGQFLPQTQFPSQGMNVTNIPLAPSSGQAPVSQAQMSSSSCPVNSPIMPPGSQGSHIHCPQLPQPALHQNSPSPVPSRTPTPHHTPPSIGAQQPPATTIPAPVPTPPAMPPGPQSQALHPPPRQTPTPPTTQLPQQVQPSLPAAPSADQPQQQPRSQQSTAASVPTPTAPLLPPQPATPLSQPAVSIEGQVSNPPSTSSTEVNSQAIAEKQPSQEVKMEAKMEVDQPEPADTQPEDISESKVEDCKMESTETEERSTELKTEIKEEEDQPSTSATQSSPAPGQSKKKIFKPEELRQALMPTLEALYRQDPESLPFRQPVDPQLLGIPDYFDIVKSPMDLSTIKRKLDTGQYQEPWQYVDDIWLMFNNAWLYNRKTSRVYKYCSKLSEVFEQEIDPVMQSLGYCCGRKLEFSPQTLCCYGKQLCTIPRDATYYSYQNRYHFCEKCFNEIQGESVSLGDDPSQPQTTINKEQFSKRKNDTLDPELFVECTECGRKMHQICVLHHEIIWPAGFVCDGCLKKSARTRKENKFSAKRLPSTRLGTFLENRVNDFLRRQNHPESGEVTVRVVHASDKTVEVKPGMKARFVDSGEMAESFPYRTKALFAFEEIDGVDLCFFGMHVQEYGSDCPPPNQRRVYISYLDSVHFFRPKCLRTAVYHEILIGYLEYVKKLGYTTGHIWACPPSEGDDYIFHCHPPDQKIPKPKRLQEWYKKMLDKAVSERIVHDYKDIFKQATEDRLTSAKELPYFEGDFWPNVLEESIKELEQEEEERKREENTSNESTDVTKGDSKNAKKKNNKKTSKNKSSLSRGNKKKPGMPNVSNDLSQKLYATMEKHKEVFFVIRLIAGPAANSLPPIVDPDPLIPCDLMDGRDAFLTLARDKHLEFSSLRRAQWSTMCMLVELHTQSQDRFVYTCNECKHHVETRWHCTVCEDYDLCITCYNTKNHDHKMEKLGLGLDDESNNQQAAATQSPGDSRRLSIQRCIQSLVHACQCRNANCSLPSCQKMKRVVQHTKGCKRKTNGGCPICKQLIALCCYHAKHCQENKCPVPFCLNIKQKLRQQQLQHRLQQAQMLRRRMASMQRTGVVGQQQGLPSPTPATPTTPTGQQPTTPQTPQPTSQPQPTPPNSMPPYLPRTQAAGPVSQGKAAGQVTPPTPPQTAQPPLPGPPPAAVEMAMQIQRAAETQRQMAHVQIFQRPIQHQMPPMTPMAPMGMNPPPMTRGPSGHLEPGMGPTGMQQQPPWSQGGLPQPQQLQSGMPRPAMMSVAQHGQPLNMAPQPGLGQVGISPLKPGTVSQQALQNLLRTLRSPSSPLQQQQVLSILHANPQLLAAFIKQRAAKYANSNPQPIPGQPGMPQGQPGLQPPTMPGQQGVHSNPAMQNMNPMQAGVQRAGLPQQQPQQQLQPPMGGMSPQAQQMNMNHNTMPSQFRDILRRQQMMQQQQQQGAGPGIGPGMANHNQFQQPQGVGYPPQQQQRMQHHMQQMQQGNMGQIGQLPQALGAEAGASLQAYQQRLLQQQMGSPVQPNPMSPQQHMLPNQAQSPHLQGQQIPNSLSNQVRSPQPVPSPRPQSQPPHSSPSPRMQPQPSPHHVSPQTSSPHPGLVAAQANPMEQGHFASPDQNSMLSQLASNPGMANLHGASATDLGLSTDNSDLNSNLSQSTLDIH

3T3-L1 [6] = assay: Anti-adipogenic activity against mouse 3T3-L1 cells assessed as upregulation of KDM4C mRNA expression at 25 uM measured after 7 days by qRT-PCR analysis; type: functional, cell-based; settings: time 7.0 day
[7] = Toxicity in female Sprague-Dawley rat assessed as effect on body weight at 250 mg/kg, po administered as single dose measured on day 14 (Rvb =171.5 +/- 6.65 g); type: organism-based; settings: in vivo, 336 h, time 14 day
[8] = Toxicity in male Sprague-Dawley rat assessed as effect on body weight at 1000 mg/kg, po administered as single dose measured on day 1 (reference value: 174.75 +/- 7.61 g); type: organism-based; settings: in vivo, 24 h, time 1 day
[9] = Toxicity in male Sprague-Dawley rat assessed as average water intake measured per day at 500 mg/kg, po administered as single dose measured on day 7 (Rvb =30 ml/day); type: organism-based; settings: in vivo, 168 h, time 7 day
[10] = Toxicity in male Sprague-Dawley rat assessed as average food intake at 250 mg/kg, po administered as single dose measured on day 7 (Rvb =20.24 g/day); type: organism-based; settings: in vivo, 168 h, time 7 day
Mus musculus [11] = assay: Anti-obesity activity in C57BL6/J mouse model of high fat diet-induced obesity assessed as reduction in hepatic steatosis at 50 mg/kg by hematoxylin and eosin staining based assay; type: functional, organism-based
[12] = Toxicity in female Sprague-Dawley rat assessed as average water intake measured per day at 1000 mg/kg, po administered as single dose measured on day 14 (Rvb =26 ml/day); type: organism-based; settings: in vivo, 336 h, time 14 day
[13] = Toxicity in female Sprague-Dawley rat assessed as effect on body weight at 1000 mg/kg, po administered as single dose measured on day 7 (Rvb =169.81 +/- 6.57 g); type: organism-based; settings: in vivo, 168 h, time 7 day
[14] = Toxicity in male Sprague-Dawley rat assessed as average water intake measured per day at 250 mg/kg, po administered as single dose measured on day 1 (Rvb =32 ml/day); type: organism-based; settings: in vivo, 24 h, time 1 day
[15] = Toxicity in male Sprague-Dawley rat assessed as average food intake at 250 mg/kg, po administered as single dose measured on day 14 (Rvb =21.24 g/day); type: organism-based; settings: in vivo, 336 h, time 14 day
[16] = Toxicity in male Sprague-Dawley rat assessed as average food intake at 250 mg/kg, po administered as single dose measured on day 1 (Rvb =20.38 g/day); type: organism-based; settings: in vivo, 24 h, time 1 day
[17] = Mutagenicity in Salmonella typhimurium TA102 assessed as number of revertants measured per plate at 10 to 1000 incubated for 48 hrs in absence of rat liver S9 fraction by plate incorporation assay; type: toxicity; settings: salmonella enterica subsp. enterica serovar typhimurium, s9, 48 h, dose 10-1000 µg
3T3-L1 [18] = assay: Anti-adipogenic activity against mouse 3T3-L1 cells assessed as downregulation of CEBPA mRNA expression at 25 uM measured after 7 days by qRT-PCR analysis; type: functional, cell-based; settings: time 7.0 day
Mus musculus [19] = assay: Anti-obesity activity in db/db mouse assessed as reduction in hepatic steatosis at 50 mg/kg, po qd administered for 30 days by hematoxylin and eosin staining based assay; type: functional, organism-based; settings: time 30.0 day
[20] = system: Histone acetyltransferase p300 (Homo sapiens), Q09472 [C1438A]; assay: Inhibition of […] His-tagged EP300 C1438A mutant catalytic domain catalyzed acetylation (unknown origin) expressed in Escherichia coli BL21 (DE3) using Histone H3 as substrate at 25 uM preincubated with compound for 10 mins followed by acetyl-CoA addition and measured after 10 mins by Western blot analysis; settings: time 20.0 min
Chain of Histone acetyltransferase p300 (Homo sapiens), Q09472 [C1438A] (Q09472 whole entry C1438A, the tested form may be a part): as the sequence (Q09472 whole entry) above, with C1438A counted along it

[21] = Toxicity in female Sprague-Dawley rat assessed as average water intake measured per day at 500 mg/kg, po administered as single dose measured on day 14 (Rvb =26 ml/day); type: organism-based; settings: in vivo, 336 h, time 14 day
[22] = Toxicity in female Sprague-Dawley rat assessed as effect on body weight at 1000 mg/kg, po administered as single dose measured on day 1 (Rvb =152.21 +/- 6.58 g); type: organism-based; settings: in vivo, 24 h, time 1 day
3T3-L1 [23] = assay: Anti-adipogenic activity against mouse 3T3-L1 cells assessed as downregulation of ACSS2 mRNA expression at 25 uM measured after 7 days by qRT-PCR analysis; type: functional, cell-based; settings: time 7.0 day
[24] = Toxicity in female Sprague-Dawley rat assessed as effect on body weight at 500 mg/kg, po administered as single dose measured on day 1 (Rvb =152.21 +/- 6.58 g); type: organism-based; settings: in vivo, 24 h, time 1 day
[25] = Toxicity in male Sprague-Dawley rat assessed as average food intake at 500 mg/kg, po administered as single dose measured on day 14 (Rvb =21.24 g/day); type: organism-based; settings: in vivo, 336 h, time 14 day
[26] = Toxicity in female Sprague-Dawley rat assessed as average food intake at 1000 mg/kg, po administered as single dose measured on day 7 (Rvb =15.65 g/day); type: organism-based; settings: in vivo, 168 h, time 7 day
[27] = Toxicity in male Sprague-Dawley rat assessed as effect on body weight at 1000 mg/kg, po administered as single dose measured on day 7 (reference value: 217.38 +/- 11.38 g); type: organism-based; settings: in vivo, 168 h, time 7 day
[28] = Toxicity in male Sprague-Dawley rat assessed as average food intake at 1000 mg/kg, po administered as single dose measured on day 7 (Rvb =20.24 g/day); type: organism-based; settings: in vivo, 168 h, time 7 day
[29] = Mutagenicity in Salmonella typhimurium TA97a assessed as number of revertants measured per plate at 10 to 1000 incubated for 48 hrs in presence of rat liver S9 fraction by plate incorporation assay; type: toxicity; settings: salmonella enterica subsp. enterica serovar typhimurium, s9, 48 h, dose 10-1000 µg

Work on `COc1ccc(C(=O)C2=C3OC(C)(C)[C@@H](CC=C(C)C)C[C@@]34C[C@@H](CC=C(C)C)C(C)(C)[C@](CC=C(C)C)(C2=O)C4=O)cc1OC` yielded an Activity [1] of 229.75 g, an Activity [2] of 174.54 g and an Activity [3] of 26 mL. The Activity [4] was 20.76 g/day, the inhibition [5] was “Active” and the Activity (3T3-L1 [6]) was “Active”. The Activity [7] was 176.35 g, the Activity [8] was 176.24 g and the Activity [9] was 33 mL. The Activity [10] was 20.79 g/day, the Activity (Mus musculus [11]) was “Active” and the Activity [12] was 32 mL. For the same compound, the Activity [13] was 178.58 g, the Activity [14] was 32 mL and the Activity [15] was 22.62 g/day. For the same compound, the Activity [16] was 20.03 g/day, the Activity [17] was “Non-Toxic” and the Activity (3T3-L1 [18]) was “Active”. The Activity (Mus musculus [19]) was “Active”, the inhibition [20] was “Active” and the Activity [21] was 26 mL. For the same compound, the Activity [22] was 153.81 g, the Activity (3T3-L1 [23]) was “Active” and the Activity [24] was 153.32 g. It also gave an Activity [25] of 23.29 g/day, an Activity [26] of 17.82 g/day and an Activity [27] of 217.65 g. The Activity [28] was 20.74 g/day and the Activity [29] was “Non-Toxic”.
